Where “and” joins values, the source holds several entries; their conditions need not be identical. Equal values may be shown once.
Test system: 422866-222-R5-J1-PDC spheroids with HUVEC/MSC, viability
Assay: Anticancer human tumor 422866-222-R5-J1-PDC patient-derived pancreatic adenocarcinoma cell line growth inhibition [GQUAD]
Conditions: for viability, T/C: stronger effect = lower value
Text: DNA G-quadruplex Stabilizer Agents in Combinations in Complex Spheroids
A high-throughput screen of multi-cell type tumor spheroids was designed to identify active combinations of DNA G-quadruplex stabilizer agents and targeted small molecules. Complex spheroids include a stromal component modeled by human endothelial cells (HUVEC) and fibroblasts modeled by human mesenchymal stem cells (MSCs). The concentration ranges selected for each drug and investigational agent were based upon clinically achievable concentrations if the clinical Cmax of the agent was known.
Compounds. The drugs and investigational agents: pidnarulex (CX-5461; NSC782164), APTO-253 (NSC789042), BRACO-19 (NSC847499), peposertib (NSC802822), ceralasertib (NSC780249), elimusertib (NSC800525), camonsertib (NSC841442), AZD-1390 (NSC803789), olaparib (NSC753686), talazoparib (NSC767125), ART-558 (NSC835418), sotorasib (NSC818433), MRTX-1133 (NSC836407), SN-38 (NSC673596), topotecan (NSC609699), etoposide (NSC141540), doxorubicin (NSC123127), gemcitabine (NSC613327), 5-fluorouracil (NSC19893), paclitaxel (NSC125973), vemurafenib (NSC761431), panobinostat (NSC761190), R-306465 (JNJ-16241199; NSC773264), adavosertib (NSC754352), TP-3654 (NSC805149), carboplatin (NSC241240), KSQ-4279 (NSC840948), and staurosporine (NSC755774) were obtained from the National Cancer Institute (NCI) Developmental Therapeutics Program Chemical Repository (34). The FDA-approved anticancer drug set is available from the NCI Developmental Therapeutics Program. […] The stock solutions were prepared in dimethyl sulfoxide (DMSO, Sigma-Aldrich, St. Louis, MO, cat. D2650) at 800-fold the tested concentration and stored at -70 degrees C prior to their use. All drugs and investigational agents were tested over a range starting from a high concentration at or near the clinical Cmax and decreasing in half-log increments. If the clinical Cmax for an agent had not been determined, the highest concentration tested was 10 microM.
2.3 Cell Culture. All cells were maintained in an incubator at 37 degrees C and 5% CO2 with 95% humidity. The PDC lines were cultured according to standard operating procedures established by the NCI PDMR. All PDCs were thawed and cultured in Matrigel-coated flasks prepared with a working solution of 1X Ham's F-12 nutrient mix, without supplementation (Invitrogen, cat. 11765054), 100 U/mL penicillin-streptomycin (Invitrogen, cat. 15140122), and 2.5% Matrigel (Corning Inc., cat. 354248) for the first three passages. The 857933-349-R-J2-PDC line was cultured in 6C/Colon 1B media, which includes advanced DMEM/F-12 (Thermo Fisher Scientific, cat. 12634028), 10 mM HEPES (Thermo Fisher Scientific, cat. 15630080), 1X GlutaMAX supplement (Thermo Fisher Scientific, cat. 35050061), 0.1 mg/mL primocin (InvivoGen, cat. ant-pm-2), 10% defined fetal bovine serum, heat inactivated (HyClone Laboratories Inc., cat. SH30070.03HI), 50% L-WRN conditioned media (ATCC, cat. CRL-3276), 1.25 mM N-Acetyl-L-cysteine (Sigma-Aldrich, cat. A9165), 10 mM nicotinamide (Sigma-Aldrich, cat. N0636), 1X B-27 supplement (Thermo Fisher Scientific, cat. 17504044), 1X N-2 supplement (Thermo Fisher Scientific, cat. 17502048), 10 microM Y-27632 dihydrochloride (Tocris Bioscience, cat. 1254), and 50 ng/mL human EGF recombinant protein (Thermo Fisher Scientific, cat. PHG0311). The 485176-168-R4-J1-PDC line was cultured in Panc media, which includes all 6C/Colon 1B media components plus 100 ng/mL human FGF-10 (Thermo Fisher Scientific, cat. 100-26), 500 nM SB-431542 (Selleckchem, cat. S1067), and gastrin (Tocris, cat. 3006).
[…]

[1] = curve of first compound, second compound 0.0316 µM
[2] = curve of first compound, second compound 0.1 µM
[3] = curve of first compound, second compound 0.316 µM
[4] = curve of first compound, second compound 1 µM
[5] = curve of first compound, second compound 3.16 µM
[6] = curve of first compound, second compound 10 µM
[7] = second compound 0.0316 µM, first compound 0.0316 µM
[8] = second compound 0.0316 µM, first compound 0.1 µM
[9] = second compound 0.0316 µM, first compound 0.316 µM
[10] = second compound 0.0316 µM, first compound 1 µM
[11] = second compound 0.0316 µM, first compound 3.16 µM
[12] = second compound 0.0316 µM, first compound 10 µM
[13] = second compound 0.1 µM, first compound 0.0316 µM
[14] = second compound 0.1 µM, first compound 0.1 µM
[15] = second compound 0.1 µM, first compound 0.316 µM
[16] = second compound 0.1 µM, first compound 1 µM
[17] = second compound 0.1 µM, first compound 3.16 µM
[18] = second compound 0.1 µM, first compound 10 µM
[19] = second compound 0.316 µM, first compound 0.0316 µM
[20] = second compound 0.316 µM, first compound 0.1 µM
[21] = second compound 0.316 µM, first compound 0.316 µM
[22] = second compound 0.316 µM, first compound 1 µM
[23] = second compound 0.316 µM, first compound 3.16 µM
[24] = second compound 0.316 µM, first compound 10 µM
[25] = second compound 1 µM, first compound 0.0316 µM
[26] = second compound 1 µM, first compound 0.1 µM
[27] = second compound 1 µM, first compound 0.316 µM
[28] = second compound 1 µM, first compound 1 µM
[29] = second compound 1 µM, first compound 3.16 µM
[30] = second compound 1 µM, first compound 10 µM
[31] = second compound 3.16 µM, first compound 0.0316 µM
[32] = second compound 3.16 µM, first compound 0.1 µM
[33] = second compound 3.16 µM, first compound 0.316 µM
[34] = second compound 3.16 µM, first compound 1 µM
[35] = second compound 3.16 µM, first compound 3.16 µM
[36] = second compound 3.16 µM, first compound 10 µM
[37] = second compound 10 µM, first compound 0.0316 µM
[38] = second compound 10 µM, first compound 0.1 µM
[39] = second compound 10 µM, first compound 0.316 µM
[40] = second compound 10 µM, first compound 1 µM
[41] = second compound 10 µM, first compound 3.16 µM
[42] = second compound 10 µM, first compound 10 µM
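Further: spheroids exposed to compounds for seven days before reading.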
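Wherever viability, T/C is given: percent viability relative to DMSO vehicle control taken as 100%.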

In the case of `Cn1ncnc1[C@H]1c2n[nH]c(=O)c3cc(F)cc(c23)N[C@@H]1c1ccc(F)cc1`, the viability, T/C (compound 0.000999 µM) is reported as 91.3% and 88.8% and 87.1%, the viability, T/C (compound 0.00316 µM) is reported as 107% and 96.2% and 77.8% and the viability, T/C (compound 0.00999 µM) is reported as 96.3% and 99.6% and 107%. The viability, T/C (compound 0.0316 µM) was 91.8% and 90.4% and 88.1%, the viability, T/C (compound 0.0999 µM) was 80.6% and 91.5% and 75.3% and the viability, T/C (compound 0.316 µM) was 78.1% and 72.3% and 73.5%. For the same molecule, the IC50 (curve of compound) was > 316 nM.
In the case of `O=c1[nH]cc(F)c(=O)[nH]1` + Cc1cnc(CNC(=O)c2c(=O)c3ccc(N4CCCN(C)CC4)nc3n3c2sc2ccccc23)cn1, the IC50 [1] is reported as > 10000 nM, the IC50 [2] is reported as > 10000 nM and the IC50 [3] is reported as > 10000 nM. The IC50 [4] was > 10000 nM, the IC50 [5] was > 10000 nM and the IC50 [6] was > 10000 nM. The viability, T/C [7] was 90%, the viability, T/C [8] was 93.1% and the viability, T/C [9] was 88.2%. The viability, T/C [10] was 88.8%, the viability, T/C [11] was 78% and the viability, T/C [12] was 78.7%. The viability, T/C [13] was 94.5%, the viability, T/C [14] was 79.6% and the viability, T/C [15] was 89.4%. It also gave a viability, T/C [16] of 95.5%, a viability, T/C [17] of 85.8% and a viability, T/C [18] of 87.5%. For the same molecule, the viability, T/C [19] was 85.6%, the viability, T/C [20] was 69.4% and the viability, T/C [21] was 96.1%. The viability, T/C [22] was 83.3%, the viability, T/C [23] was 89.7% and the viability, T/C [24] was 92.2%. It also gave a viability, T/C [25] of 88.6%, a viability, T/C [26] of 85.8% and a viability, T/C [27] of 85.2%. For the same molecule, the viability, T/C [28] was 104%, the viability, T/C [29] was 105% and the viability, T/C [30] was 104%. It also gave a viability, T/C [31] of 83.1%, a viability, T/C [32] of 85.2% and a viability, T/C [33] of 93.5%. It also gave a viability, T/C [34] of 83.3%, a viability, T/C [35] of 99.8% and a viability, T/C [36] of 82.8%. It also gave a viability, T/C [37] of 81.8%, a viability, T/C [38] of 78.4% and a viability, T/C [39] of 85.7%. For the same molecule, the viability, T/C [40] was 80.6%, the viability, T/C [41] was 87.5% and the viability, T/C [42] was 76.4%.
Work on `C#Cc1c(F)ccc2cc(O)cc(-c3ncc4c(N5CC6CCC(C5)N6)nc(OCC56CCCN5CC(F)C6)nc4c3F)c12` (stereo not drawn) + CN(C)c1ccc(Nc2c3ccc(NC(=O)CCN4CCCC4)cc3nc3cc(NC(=O)CCN4CCCC4)ccc23)cc1 yielded an IC50 [1] of 1130 nM, an IC50 [2] of 1250 nM and an IC50 [3] of 1190 nM. The IC50 [4] was 1110 nM, the IC50 [5] was 919 nM and the IC50 [6] was 1590 nM. It also gave a viability, T/C [7] of 97.9%, a viability, T/C [8] of 91.8% and a viability, T/C [9] of 87.2%. For the same molecule, the viability, T/C [10] was 50.8%, the viability, T/C [11] was 36.8% and the viability, T/C [12] was 29.4%. The viability, T/C [13] was 102%, the viability, T/C [14] was 83.4% and the viability, T/C [15] was 89.6%. The viability, T/C [16] was 51.1%, the viability, T/C [17] was 39.9% and the viability, T/C [18] was 27.3%. For the same molecule, the viability, T/C [19] was 93.2%, the viability, T/C [20] was 85.9% and the viability, T/C [21] was 64.5%. It also gave a viability, T/C [22] of 53.5%, a viability, T/C [23] of 39.3% and a viability, T/C [24] of 30.2%. For the same molecule, the viability, T/C [25] was 96.4%, the viability, T/C [26] was 83.6% and the viability, T/C [27] was 65.7%. For the same molecule, the viability, T/C [28] was 50.1%, the viability, T/C [29] was 42.1% and the viability, T/C [30] was 33.6%. The viability, T/C [31] was 80.5%, the viability, T/C [32] was 96.1% and the viability, T/C [33] was 68.6%. For the same molecule, the viability, T/C [34] was 49.5%, the viability, T/C [35] was 40.3% and the viability, T/C [36] was 32.2%. For the same molecule, the viability, T/C [37] was 84.6%, the viability, T/C [38] was 85.1% and the viability, T/C [39] was 78.5%. The viability, T/C [40] was 50.8%, the viability, T/C [41] was 45.5% and the viability, T/C [42] was 27.2%.
In the case of `O=c1[nH]cc(F)c(=O)[nH]1`, the viability, T/C (compound 0.0316 µM) is reported as 103% and 89.7% and 95.6%, the viability, T/C (compound 0.1 µM) is reported as 93.4% and 92.9% and 86.8% and the viability, T/C (compound 0.316 µM) is reported as 91% and 104% and 109%. The viability, T/C (compound 1 µM) was 88% and 89.2% and 87.2%, the viability, T/C (compound 3.16 µM) was 78.2% and 73.6% and 76.3% and the viability, T/C (compound 10 µM) was 71.8% and 68.2% and 62.4%. For the same molecule, the IC50 (curve of compound) was > 10000 nM.

— PubChem BioAssay AID2060511 (Molecular Pharmacology Branch, DTP, NCI, 2025)
